Test results: patent US20240240224A1, “FLUORESCENT D-TYPE AMINO ACID METABOLISM MARKER-BASED METHOD FOR DETECTING ANTIBACTERIAL DRUG SENSITIVITY TEST” (priority 2020, published 2024)
Values after ≈ are worked out from the molar mass of the structure shown.

Legend:
[1] = system: S. aureus ATCC29213; test: FaAST (FDAA metabolic labeling method); type: cell-based, Staphylococcus aureus; details: unit assumed
Method: (§1) Take the colony to be tested that has been cultured overnight on the plate and fully mix it in normal saline to make a uniform bacterial solution. Dilute it into Cation-Adjusted Mueller Hinton Broth (CAMHB) culture medium to make a bacterial solution with OD600=0.05. • 2. Add 45 μl antibiotic solutions of different concentrations to 96-well plates (see Table 1 for antibiotic concentration gradient settings). • 3. Add 50 μl of the bacterial solution prepared in step 1 to the 96-well plate and mix well. • 4. Add 5 μl of 10 mM Cy5-DAA probe (final concentration 0.15 mM, see FIG. 1 for its structure) into each well, mix well, and cultivate in dark for 2 hours. • 5. Add 200 μl After PBS solution is diluted, the fluorescence intensity of each sample is detected by flow cytometry. The flow detection results are shown in FIG. 4-5, showing the curve of the change of antibiotic concentration gradient and fluorescence intensity. The MIC (minimum inhibitory concentration) can be obtained by referring to this curve.
(§2) Bacteria with antibiotic resistance are shown in bold in the following table.

[2] = system: S. aureus Sa22; test: FaAST (FDAA metabolic labeling method); type: cell-based, Staphylococcus aureus; details: unit assumed
Method: as §1, §2

[3] = system: S. aureus Sa23; test: FaAST (FDAA metabolic labeling method); type: cell-based, Staphylococcus aureus; details: unit assumed
Method: as §1, §2

[4] = system: E. faecium Ef26; test: FaAST (FDAA metabolic labeling method); type: cell-based, Enterococcus faecium; details: unit assumed
Summary of the method: (§3)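 Bacteria at OD600=0.05 in CAMHB exposed to antibiotic concentration gradients with Cy5-DAA probe […], 2 h in the dark. Fluorescence read by flow cytometry after PBS dilution; MIC taken from the curve of fluorescence intensity versus antibiotic concentration.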

[5] = system: E. faecium Ef28; test: FaAST (FDAA metabolic labeling method); type: cell-based, Enterococcus faecium; details: unit assumed
Method: as §1, with “The flow detection results are shown in FIG. 4-5, showing the curve of the change of antibiotic concentration gradient and fluorescence intensity.” left out

[6] = system: E. faecalis ATCC29212; test: BMD susceptibility test; type: cell-based, Enterococcus faecalis; details: unit assumed
[7] = system: E. faecalis ATCC29212; test: FaAST (FDAA metabolic labeling method); type: cell-based, Enterococcus faecalis; details: unit assumed
Summary of the method: as §3

[8] = system: E.coli 1113; test: FDAA metabolic labeling susceptibility test (Cy5-DAA probe, flow cytometry); type: cell-based, Escherichia coli; details: Escherichia coli; E.coli 1113; Cy5-DAA probe, 2 hours; read-out: MIC, FDAA
[9] = system: E.coli 1146; test: as above; type: cell-based, Escherichia coli; details: Escherichia coli; E.coli 1146; Cy5-DAA probe, 2 hours; read-out: MIC, FDAA
[10] = system: P. aeruginosa Pa2; test: BMD susceptibility test; type: cell-based, Pseudomonas aeruginosa; details: unit assumed
[11] = system: Pa ATCC 27853; test: BMD susceptibility test; type: cell-based, Pseudomonas aeruginosa; details: unit assumed
[12] = system: A. baumannii Ab16; test: FaAST (FDAA metabolic labeling); type: cell-based, Acinetobacter baumannii; details: unit assumed
Summary of the method: (§4)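 Bacteria at OD600=0.05 in CAMHB mixed with antibiotic dilutions plus Cy5-DAA probe at 0.15 mM final, then incubated 2 h in the dark. Cell-wall labeling fluorescence measured by flow cytometry after PBS dilution.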

[13] = system: K. pneumoniae Kp6; test: FaAST (FDAA metabolic labeling); type: cell-based, Klebsiella pneumoniae; details: unit assumed
Summary of the method: as §4

[14] = system: K. pneumoniae Kp9; test: FaAST (FDAA metabolic labeling); type: cell-based, Klebsiella pneumoniae; details: unit assumed
Summary of the method: as §4

[15] = system: alveolar lavage fluid sample 0204, A. baumannii; test: BMD susceptibility test of patient alveolar lavage fluid; type: cell-based, Acinetobacter baumannii; details: unit assumed
[16] = system: Enterococcus faecium EFM26; test: VITEK drug sensitivity test; type: cell-based; details: unit assumed
[17] = system: Pseudomonas aeruginosa PAE853; test: VITEK drug sensitivity test; type: cell-based; details: unit assumed

## C[C@H]1COc2c(N3CCN(C)CC3)c(F)cc3c(=O)c(C(=O)O)cn1c23 [Levofloxacin, levofloxacin]
[1]
  FaAST (MIC): 0.5 µg/mL
[2]
  FaAST (MIC): 32 µg/mL
[3]
  FaAST (MIC): 1 µg/mL
[4]
  FaAST (MIC): 64 µg/mL
[5]
  FaAST (MIC): 64 µg/mL
[6]
  BMD (MIC): 1 µg/mL
[7]
  FaAST (MIC): 1 µg/mL
[8]
  MIC: ≥ 16 µg/mL
[9]
  MIC: ≥ 16 µg/mL
[10]
  BMD (MIC): 0.5 µg/mL
[11]
  BMD (MIC): 0.5 µg/mL
[12]
  FaAST (MIC): 32 µg/mL
[13]
  FaAST (MIC): 0.5 µg/mL
[14]
  FaAST (MIC): 128 µg/mL
[15]
  BMD (MIC): 0.5 µg/mL
[16]
  MIC, VITEK: ≥ 256 µg/mL
[17]
  MIC, VITEK: 0.5 µg/mL (≈ 1.38 µM)
